# Measurements from ChEMBL document CHEMBL5727776, “Heteroaromatic carboxamide derivatives as plasma kallikrein inhibitors” (2020).
# Target: Plasma kallikrein (Homo sapiens, UniProt P03952)
# Test: Measurements were performed in a kinetic interval every 2nd minute for 16 min using a Spectramax M5 (Molecular Devices) with the following settings of the wavelength excitation of 350 nm and wavelength emission of 450 nm.
# Sequence of Plasma kallikrein (P03952 20-390 limits assumed): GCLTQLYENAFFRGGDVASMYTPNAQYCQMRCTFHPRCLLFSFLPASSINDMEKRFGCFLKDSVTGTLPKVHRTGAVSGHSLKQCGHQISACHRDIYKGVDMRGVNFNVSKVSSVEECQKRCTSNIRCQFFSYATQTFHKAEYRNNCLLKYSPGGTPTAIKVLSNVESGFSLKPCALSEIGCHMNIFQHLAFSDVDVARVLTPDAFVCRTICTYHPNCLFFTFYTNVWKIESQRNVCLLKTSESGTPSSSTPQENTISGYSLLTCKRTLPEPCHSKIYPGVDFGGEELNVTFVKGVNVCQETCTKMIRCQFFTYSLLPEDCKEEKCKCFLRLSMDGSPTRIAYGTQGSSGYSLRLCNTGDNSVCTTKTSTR
# Sequence of Plasma kallikrein (P03952 391-638 limits assumed): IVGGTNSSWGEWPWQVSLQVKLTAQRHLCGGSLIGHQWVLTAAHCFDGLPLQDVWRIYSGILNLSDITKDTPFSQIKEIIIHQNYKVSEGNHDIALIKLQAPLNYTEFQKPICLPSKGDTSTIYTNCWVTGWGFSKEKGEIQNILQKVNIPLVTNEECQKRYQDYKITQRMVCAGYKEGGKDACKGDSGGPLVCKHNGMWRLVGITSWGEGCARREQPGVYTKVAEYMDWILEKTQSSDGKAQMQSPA
row,Compound,Ki
1,Cc1nc(N2CC3(CC3)C2)ccc1Cn1cc(C(=O)N[C@@H]2CCc3c(C)n[nH]c32)cn1,0.4 nM
2,Cc1nc(N2CC3C(C2)C3(F)F)ccc1Cn1cc(C(=O)N[C@@H]2CCc3c(C)n[nH]c32)c(C)n1 (some centres not stated),0.1 nM
